Our source for the TGI and GI50 values is PubChem BioAssay (NCI).

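All cell lines were grown in 96-well plates and treated with compound for 48 hours. GI50 marks 50% less growth. The concentration for full growth arrest is given as TGI.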

Some test systems named below: T-47D breast; NCI-H460 lung; SNB-75 CNS; HCT-15 colon; TK-10 renal; IGROV1 ovarian; MDA-N; M14 melanoma; DU-145 prostate; SF-295 CNS; OVCAR-3 ovarian.
Holding throughout (experiment): NCI tumour cell line growth inhibition, 48 h

Regarding `COC(=O)c1c(C)cccc1C1CN=NC12Cc1cccc(C)c1C2=O` (stereo not drawn), the TGI with T-47D breast was more than 100 µM; in the experiment with NCI-H460 lung, 45.1 µM; in the experiment on SNB-75 CNS, more than 100 µM; in the experiment on HCT-15 colon, more than 100 µM; in the experiment with TK-10 renal it was more than 100 µM; in the experiment on IGROV1 ovarian, more than 100 µM. Besides, the TGI is more than 100 µM in the experiment with MDA-N, 25.5 µM with M14 melanoma and more than 100 µM in the experiment on DU-145 prostate.

Take `Cc1cc(C)c(C#N)c(SC(=S)NC(=O)c2ccccc2)n1`: the TGI in the experiment on T-47D breast, with NCI-H460 lung, with SNB-75 CNS, in the experiment with HCT-15 colon, in the experiment with TK-10 renal and in the experiment on IGROV1 ovarian was more than 100 µM each time. Besides, the TGI in the experiment on MDA-N, with M14 melanoma and in the experiment with DU-145 prostate was more than 100 µM each time.

Turning to `O=C(c1ccccc1)c1ccc2nc(-c3c(Cl)c(Cl)c(Cl)c(Cl)c3C(=O)Nc3ccco3)[nH]c2c1`, the TGI in the experiment on T-47D breast, with NCI-H460 lung, in the experiment on SNB-75 CNS, in the experiment on HCT-15 colon, with TK-10 renal and with IGROV1 ovarian was more than 100 µM throughout. Besides, the TGI is 41 µM in the experiment on MDA-N; more than 100 µM with SF-295 CNS; more than 100 µM in the experiment with OVCAR-3 ovarian; more than 100 µM in the experiment on M14 melanoma; more than 100 µM in the experiment on DU-145 prostate.

On to `CC(=O)OCC1(CNc2nc(N)ncc2C#N)CC(CCc2ccccc2)C1` (stereo not drawn), for which the TGI in the experiment on T-47D breast, in the experiment on NCI-H460 lung, in the experiment on SNB-75 CNS, in the experiment on HCT-15 colon, in the experiment on IGROV1 ovarian and in the experiment with MDA-N was more than 100 µM in each case. Besides, the TGI in the experiment on SF-295 CNS and in the experiment on DU-145 prostate was more than 100 µM in each case.

With `CN1CCCC(OC(=O)c2cc3cc(CCl)ccc3oc2=O)C1` (stereo not drawn), the TGI in the experiment on T-47D breast was more than 100 µM; with NCI-H460 lung it was 44.9 µM; with SNB-75 CNS it was 52.8 µM; with HCT-15 colon, 51.9 µM; with TK-10 renal it was 48.8 µM; in the experiment with IGROV1 ovarian, more than 100 µM. Further, the TGI in the experiment on MDA-N was 46 µM; with SF-295 CNS, 77.9 µM; in the experiment with OVCAR-3 ovarian it was 37.8 µM; in the experiment with M14 melanoma, 39.3 µM; in the experiment on DU-145 prostate, more than 100 µM.

As for `C#Cc1cccc(Nc2ncnc3cc(OCCOC)c(OCCOC)cc23)c1`, the GI50 was 4.17 µM in the experiment with T-47D breast, 0.196 µM in the experiment with TK-10 renal, 3.53 µM with OVCAR-3 ovarian and 1.6 µM in the experiment with DU-145 prostate. Also, the TGI with T-47D breast was more than 100 µM; in the experiment on NCI-H460 lung, more than 91.4 µM; in the experiment on SNB-75 CNS, 46.7 µM; in the experiment on HCT-15 colon, more than 100 µM; in the experiment with TK-10 renal, 47.8 µM; in the experiment on IGROV1 ovarian, 16.9 µM. The TGI in the experiment with MDA-N was more than 100 µM; with SF-295 CNS, 67.6 µM; in the experiment on OVCAR-3 ovarian it was more than 100 µM; in the experiment with M14 melanoma, more than 100 µM; with DU-145 prostate, more than 100 µM.

Regarding `Cc1sc2nc3n(sc4nc5sc(C)c(C)c5c(=O)n43)c(=O)c2c1C`, the TGI in the experiment with T-47D breast was 12 µM; in the experiment with NCI-H460 lung it was more than 100 µM; in the experiment with SNB-75 CNS it was 43.4 µM; in the experiment on HCT-15 colon, more than 100 µM; in the experiment with TK-10 renal it was more than 100 µM; in the experiment with IGROV1 ovarian, more than 100 µM. Besides, the TGI in the experiment with MDA-N, in the experiment with SF-295 CNS, in the experiment on OVCAR-3 ovarian, with M14 melanoma and in the experiment on DU-145 prostate was more than 100 µM each time.

As to `O=C(O)Cn1ncn(NC(=O)Cc2ccccc2)c1=S`, the TGI with T-47D breast, with NCI-H460 lung, in the experiment with SNB-75 CNS, in the experiment on HCT-15 colon, with TK-10 renal and with IGROV1 ovarian was more than 10 µM in each case. In addition, the TGI in the experiment with MDA-N, in the experiment with SF-295 CNS, with OVCAR-3 ovarian, in the experiment on M14 melanoma and with DU-145 prostate was more than 10 µM each time.

As to `CC(=O)c1cc(S(=O)(=O)c2ccc(O)c(C(C)=O)c2)ccc1O`, the TGI with T-47D breast, in the experiment on NCI-H460 lung, in the experiment on HCT-15 colon, with TK-10 renal, in the experiment on IGROV1 ovarian and in the experiment with MDA-N was more than 100 µM throughout. The TGI in the experiment on SF-295 CNS, in the experiment with OVCAR-3 ovarian, with M14 melanoma and in the experiment on DU-145 prostate was more than 100 µM each time.

As for `Cc1c(Cl)c(=O)oc2cc(OCC(O)COC(C)C)ccc12` (stereo not drawn), the TGI in the experiment with T-47D breast, in the experiment on NCI-H460 lung, in the experiment on TK-10 renal, in the experiment with IGROV1 ovarian, in the experiment on MDA-N and with SF-295 CNS was more than 100 µM in each case. Also, the TGI was more than 100 µM in the experiment on OVCAR-3 ovarian, 92.4 µM with M14 melanoma and more than 100 µM with DU-145 prostate.

`COC(C[C@H]1CCCC[C@]1(O)/C(=C\CO[Si](C(C)C)(C(C)C)C(C)C)Sc1ccccc1)OC`: the TGI was 40.8 µM in the experiment with T-47D breast; more than 100 µM in the experiment with NCI-H460 lung; 98.9 µM with SNB-75 CNS; 60 µM in the experiment with HCT-15 colon; more than 100 µM in the experiment on TK-10 renal; more than 100 µM in the experiment with IGROV1 ovarian. Besides, the TGI with MDA-N, in the experiment on SF-295 CNS, in the experiment on M14 melanoma and in the experiment on DU-145 prostate was more than 100 µM throughout.

With `CCC(=O)Nc1ccc(N2C(=O)/C(=C/c3ccc(O)c(OC)c3)N=C2c2ccccc2)cc1`, the TGI in the experiment on T-47D breast, with NCI-H460 lung, in the experiment on SNB-75 CNS, in the experiment on HCT-15 colon, with IGROV1 ovarian and in the experiment with MDA-N was more than 100 µM each time. Also, the TGI in the experiment on SF-295 CNS, in the experiment with OVCAR-3 ovarian, in the experiment on M14 melanoma and in the experiment with DU-145 prostate was more than 100 µM throughout.

As for `CCCCNC(=S)Nc1nc(C(=O)NNC(=S)NCc2ccccc2)cs1`, the TGI was 59.3 µM in the experiment with T-47D breast; more than 100 µM with HCT-15 colon; more than 100 µM in the experiment on TK-10 renal; more than 100 µM in the experiment with IGROV1 ovarian; more than 100 µM in the experiment on MDA-N; more than 100 µM in the experiment with SF-295 CNS. The TGI in the experiment on OVCAR-3 ovarian, with M14 melanoma and in the experiment with DU-145 prostate was more than 100 µM throughout.
